Paper PMC5719405, “Sex-related pharmacokinetic differences and mechanisms of metapristone (RU486 metabolite)” (Scientific Reports, 2017)

Columns and labels:
CYP3A4 = experiment: Western blotting of rat liver CYP3A4 after 7-day oral metapristone; assay type: in vivo
Protocol: (§1) To further confirm CYP1A2 and CYP3A4 are the primary CYP isoforms that metabolize metapristone, we administered oral metapristone (22.5 and 45 mg/kg/day for 7 days) to male and female rats, respectively, and measured the activity of liver CYP1A2 and CYP3A4 by using the western blotting assay. We selected western blot staining density from the controls as the basis (100%) to compare changes in CYP1A2 and CYP3A4 activity after metapristone treatment.
(§2) The total microsomal protein was extracted from rat livers prepared by diluting liver microsomal suspension with 1 volume of immunoprecipitation assay lysis buffer (150 mM NaCl, 1% NP-40, 0.5% sodium deoxy-cholic acid, 0.1% SDS, and 50 mM Tris-Cl, pH 7.5) for 15 min and then centrifuged at 13,000 rpm 4 °C for 10 min. Aliquots containing 20 µg of protein were separated by SDS-PAGE on a 10% gradient gel (Invitrogen, USA) and transferred to a PVDF membrane that was blocked with 5% non-fat dry milk in Tris-buffered saline with Tween 20 (200 mM Tris–HCl, 1.37 M NaCl, 0.1% Tween 20, pH 7.6) for 1 h. The membrane was then incubated with rabbit anti-rat CYP1A2 polyclonal antibody (1:2000 dilution), rabbit anti-rat CYP3A4 polyclonal antibody (1:1000 dilution) and glyceraldehyde-3-phosphate dehydrogenase (GAPDH) antibody (1:2000 dilution), overnight at 4 °C. After rinsing five times with buffer TBST at room temperature, the membrane was incubated with horseradish peroxidase (HRP)-labeled anti-rabbit immunoglobulin G (IgG) anti-body (Santa Cruz Biotechnology, USA). The immunoreactive bands were visualized using an enhanced chemiluminescence detection system (ChemiDoc™XRS + , Bio-Rad, Hercules, CA, USA) and quantified by using densitometry Image J 1.41 software.

human CYP1A2 = molecular target: T1, human CYP1A2 (Homo sapiens, UniProt P05177); experiment: Metapristone metabolism by cDNA-expressed recombinant human CYP1A2; assay type: in vitro ADME; conditions: 9 µM
T1 construct: made in house; host or cells: insect cells
T1 sequence (P05177 1-516): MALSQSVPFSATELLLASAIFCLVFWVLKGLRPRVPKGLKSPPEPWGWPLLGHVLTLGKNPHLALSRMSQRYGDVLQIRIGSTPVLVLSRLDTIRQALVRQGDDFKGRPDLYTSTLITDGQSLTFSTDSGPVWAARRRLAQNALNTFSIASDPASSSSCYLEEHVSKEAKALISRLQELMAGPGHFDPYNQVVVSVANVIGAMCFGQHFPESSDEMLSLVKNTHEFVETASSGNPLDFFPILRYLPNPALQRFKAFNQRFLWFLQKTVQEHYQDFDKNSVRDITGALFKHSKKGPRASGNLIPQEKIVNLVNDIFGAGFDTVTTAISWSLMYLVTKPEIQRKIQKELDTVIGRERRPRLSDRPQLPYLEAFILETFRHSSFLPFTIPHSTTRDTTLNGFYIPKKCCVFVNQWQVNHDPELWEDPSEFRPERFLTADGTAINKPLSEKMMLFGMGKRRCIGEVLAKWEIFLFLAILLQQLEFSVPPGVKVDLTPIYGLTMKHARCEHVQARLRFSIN
Protocol: To identify CYP450 isomers which were responsible for the sex different metabolism of metapristone, both CYP450 inhibitors and cDNA-expressed recombinant human CYPs were used[11]. […] The reactions of the control groups with control rat liver microsomes (heated to 80 °C for 5 min to inactivate enzymes) to inactivate enzymes or without NADPH were also included. […] The cDNA-expressed recombinant human CYPs were prepared from insect cells transfected with cDNAs encoding for human CYP1A2 or CYP3A4. […] Each reaction was then started by the addition of metapristone (9 µM) with subsequent mixing of each sample by inversion. […] Metapristone were identified by the LC/MS/MS method. Peak areas formed were used for quantitative analyses. Control incubation mixtures included mixtures without inhibitors, and mixtures with untransfected insect cell microsomes used as microsomal control, and mixtures that contained methanol instead of inhibitor (methanol control). Quantitative analyses were performed by comparing the peak areas of the inhibition reactions to their respective methanol controls. The total organic solvent content of the in vitro reaction mixtures was less than 2%.

HT-29 cells = conditions: cited from earlier work
human CYP3A4 = human CYP3A4 (Homo sapiens, UniProt P08684); experiment: Metapristone metabolism by cDNA-expressed recombinant human CYP3A4; conditions: 9 µM
[1] = Tissue distribution study with metapristone; assay type: in vivo, SD rats; conditions: female rats, 45 mg/kg single oral dose
Protocol: Sixteen SD rats (four females/group) were dosed by gavage with 45 mg/kg of metapristone to carry out tissue distribution study, as we previously described. Rats were sacrificed at 6 h and 24 h after dosing in order to collect blood, heart, liver, spleen, lung, kidney, brain, intestine and ovary for quantitative analysis of metapristone concentrations. Tissue samples were immediately washed in normal saline to remove the blood or content, and blotted dry with filter paper. Tissue samples (0.2 g) were individually homogenized with normal saline (0.8 mL). Tissue homogenates (100 µL) were processed as the plasma samples. The detailed method validation for analysis of metapristone in plasma, tissue homogenates, and liver microsomal samples is provided in the Supplementary materials.

CYP1A2 = experiment: Western blotting of rat liver CYP1A2 after 7-day oral metapristone; assay type: in vivo
Protocol: as §1, §2

[2] = In vitro microsomal metabolism of metapristone; assay type: in vitro ADME, rat; conditions: for metapristone remained: 2 h; for degradation of metapristone: 37 °C, 1 h
Protocol: The microsomal assay was similar to that described previously. Briefly, metapristone (6, 9, 13.5 µM) was incubated with male and female at liver microsomes, respectively, in an NADPH-generating system containing 1 mM NADP, 10 mM glucose-6-phosphate, 1 U/mL glucose-6-phosphate dehydrogenase and 4 mM MgCl2 in 100 mM potassium phosphate buffer (pH 7.4). Reaction mixtures were prepared in duplicate and were pre-incubated for 5 min at 37 °C. The actions were then initiated by the addition of NADPH solution. The final volume of each reaction mixture was 200 µL. Negative control reactions were prepared by incubating mixtures that excluded metapristone from the mixture. For negative control incubation where microsomes were excluded, they were added back to the reaction mixture after quenching with methanol. Samples were removed at 0, 40, 60, 80,100, 120 and 150 min, and vortex-mixed with cold ethyl acetate to stop the reaction. After centrifugation, a portion of each resulting supernatant was analyzed by mass spectrometry for unchanged metapristone.

[3] = female rats, 22.5 mg/kg/day p.o. for 7 days
[4] = female rats, 45 mg/kg/day p.o. for 7 days
[5] = male rats, 22.5 mg/kg/day p.o. for 7 days
[6] = male rats, 45 mg/kg/day p.o. for 7 days

Chain of human CYP3A4 (P08684 whole entry): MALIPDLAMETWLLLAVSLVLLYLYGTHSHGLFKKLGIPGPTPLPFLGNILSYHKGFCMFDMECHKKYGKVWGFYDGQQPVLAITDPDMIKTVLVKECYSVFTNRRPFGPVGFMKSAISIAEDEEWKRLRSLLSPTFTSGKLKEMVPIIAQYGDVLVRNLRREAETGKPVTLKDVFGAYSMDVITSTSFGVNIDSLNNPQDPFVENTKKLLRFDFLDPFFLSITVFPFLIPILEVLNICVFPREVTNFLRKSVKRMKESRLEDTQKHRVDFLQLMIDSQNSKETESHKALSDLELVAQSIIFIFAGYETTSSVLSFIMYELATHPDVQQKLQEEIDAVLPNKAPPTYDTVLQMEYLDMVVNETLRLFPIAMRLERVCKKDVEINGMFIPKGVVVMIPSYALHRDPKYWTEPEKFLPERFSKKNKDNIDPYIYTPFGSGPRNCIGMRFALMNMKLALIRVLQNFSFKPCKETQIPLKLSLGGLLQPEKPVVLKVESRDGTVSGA

SMILES: CC#C[C@]1(O)CC[C@H]2[C@@H]3CCC4=CC(=O)CCC4=C3[C@@H](c3ccc(NC)cc3)C[C@@]21C [metapristone, N-monodemethyl mifepristone]
- CYP3A4 western blot staining density relative to controls (100%) (CYP3A4; [3]): 107 ± 13%
- CYP3A4 western blot staining density relative to controls (100%) (CYP3A4; [4]): 128 ± 12%
- CYP3A4 western blot staining density relative to controls (100%) (CYP3A4; [5]): 115 ± 14%
- CYP3A4 western blot staining density relative to controls (100%) (CYP3A4; [6]): 153 ± 17%
- metapristone remained (human CYP1A2; 120 min incubation with CYP1A2, absence of inhibitor): 47.9%
- metapristone survived (human CYP1A2; 120 min incubation with CYP1A2, plus α-naphthoflavone 10 µM): 89.9%
- adhesion of HT-29 cells to endothelial cells (HT-29 cells): interrupted adhesion
- metapristone remaining (human CYP3A4; 120 min incubation with CYP3A4, absence of inhibitor): 16.3%
- metapristone unchanged (human CYP3A4; 120 min incubation with CYP3A4, plus ketoconazole 10 µM): 72.9%
- concentration at 6 h ([1]; Sprague-Dawley, rat, liver, 6 h): 222000 ± 23000 ng/g
- metapristone in rat brain [1]: detected
- CYP1A2 western blot staining density relative to controls (100%) (CYP1A2; [3]): 120 ± 16%
- CYP1A2 western blot staining density relative to controls (100%) (CYP1A2; [4]): 147 ± 21%
- CYP1A2 western blot staining density relative to controls (100%) (CYP1A2; [5]): 156 ± 19%
- CYP1A2 western blot staining density relative to controls (100%) (CYP1A2; [6]): 163 ± 12%
- metapristone remained ([2]; female rat liver microsomes, 6 µM): 21.9%
- metapristone remained ([2]; female rat liver microsomes, 9 µM): 27.2%
- metapristone remained ([2]; female rat liver microsomes, 13.5 µM): 37.3%
- degradation of metapristone ([2]; female rat liver microsomes, 6, 9 and 13.5 µM): 35.1–48.9%
- metapristone remained ([2]; male rat liver microsomes, 6 µM): 10.2%
- metapristone remained ([2]; male rat liver microsomes, 9 µM): 14.2%
- metapristone remained ([2]; male rat liver microsomes, 13.5 µM): 29.6%
- degradation of metapristone ([2]; male rat liver microsomes, 6, 9 and 13.5 µM): 47.4–67.6%
